Columns and labels:
Format in all cases: in vivo
[1] = system: CSF; test: CSF NIR fluorescence imaging (FLARE); settings: 35 kg female pig, 5 μmol intravenously, 4 hours; Channel 1 (700 nm) or Channel 2 (800 nm)
Procedure: (§1) Absorbance and fluorescence emission spectra were measured using fiber optic HR2000 absorbance (200-1100 nm) and USB2000FL fluorescence (350-1000 nm) spectrometers (Ocean Optics, Dunedin, Fla.). Excitation was provided by a 532 nm green laser pointer (Opcom Inc., Xiamen, China) set to 5 mW, a 655 nm red laser pointer (Opcom Inc., Xiamen, China) set to 5 mW, or a 770 nm NIR laser diode light source (Electro Optical Components, Santa Rosa, Calif.) set to 10 mW and coupled through a 300 μm core diameter, NA 0.22 fiber (Fiberguide Industries, Stirling, N.J.). In silico calculations of the partition coefficient (log D at pH 7.4) and surface molecular charge and hydrophobicity were calculated using MarvinSketch 5.2.1 by taking major microspecies at pH 7.4 (ChemAxon, Budapest, Hungary). NIR Fluorescence Imaging System The dual-NIR channel FLARE′ imaging system has been described in detail previously (26-28). […] Color and two independent NIR fluorescence emission images (≈700 nm for Channel 1 and ≈800 nm for Channel 2) were acquired simultaneously with custom software at rates up to 15 Hz over a 15 cm diameter field of view. NIR fluorescence from Channel 1 was pseudo-colored in red and NIR fluorescence from Channel 2 was pseudo-colored in lime green prior to merger with the color video image. […] Animal Models and Intraoperative NIR Fluorescence Imaging […]

[2] = system: pan lymph nodes; test: Pan lymph node NIR fluorescence imaging (FLARE); settings: 250 g male rat, 20 nmol intravenously, 4 hours; Channel 1 (700 nm) or Channel 2 (800 nm)
Procedure: as §1

[3] = system: bile duct; test: Bile duct NIR fluorescence imaging (FLARE); settings: 35 kg female pig, 5 μmol intravenously, 4 hours; Channel 1 (700 nm) or Channel 2 (800 nm)
Procedure: as §1

[4] = system: gallbladder; test: Gallbladder NIR fluorescence imaging (FLARE); settings: 25 g male mouse, 25 nmol intravenously, 4 hours; Channel 1 (700 nm) or Channel 2 (800 nm)
Procedure: as §1

[5] = system: thoracic duct; test: Thoracic duct NIR fluorescence imaging (FLARE); settings: 35 kg female pig, 5 μmol subcutaneously into the lower leg, 30 minutes; Channel 1 (700 nm) or Channel 2 (800 nm)
Procedure: as §1

[6] = system: ureters; test: Ureter NIR fluorescence imaging (FLARE); settings: 35 kg female pig, 5 μmol intravenously, waiting period 30 min, imaged over next 4 hours; Channel 1 (700 nm) or Channel 2 (800 nm)
Procedure: as §1

[7] = system: choroid plexus; test: Choroid plexus NIR fluorescence imaging (FLARE); settings: 25 g male mouse, 25 nmol intravenously, 4 hours; Channel 1 (700 nm) or Channel 2 (800 nm)
Procedure: as §1

[8] = system: white adipose tissue; test: White adipose tissue NIR fluorescence imaging (FLARE); settings: 25 g male mouse, 25 nmol intravenously, 4 hours; Channel 1 (700 nm) or Channel 2 (800 nm)
Procedure: as §1

[9] = system: seminal vesicle; test: Seminal vesicle NIR fluorescence imaging (FLARE); settings: 25 g male mouse, 25 nmol intravenously, 4 hours; Channel 1 (700 nm) or Channel 2 (800 nm)
Procedure: as §1

[10] = system: brown fat; test: Brown adipose tissue NIR fluorescence imaging (FLARE); settings: 25 g male mouse, 25 nmol intravenously, 4 hours; Channel 1 (700 nm) or Channel 2 (800 nm)
Procedure: as §1

[11] = system: brain grey matter; test: Brain grey matter NIR fluorescence imaging (FLARE); settings: 25 g male mouse, 25 nmol intravenously, 4 hours; Channel 1 (700 nm) or Channel 2 (800 nm)
Procedure: as §1

[12] = system: pancreas; test: Pancreas NIR fluorescence imaging (FLARE); settings: 35 kg female pig, 5 μmol intravenously, 4 hours; Channel 1 (700 nm) or Channel 2 (800 nm)
Procedure: as §1

[13] = system: pituitary gland; test: Pituitary gland NIR fluorescence imaging (FLARE); settings: 25 g male mouse, 25 nmol intravenously, 4 hours; Channel 1 (700 nm) or Channel 2 (800 nm)
Procedure: as §1

[14] = system: parathyroid; test: Parathyroid NIR fluorescence imaging (FLARE); settings: 35 kg female pig, 5 μmol intravenously, 4 hours; Channel 1 (700 nm) or Channel 2 (800 nm)
Procedure: as §1

[15] = system: thyroid; test: Thyroid NIR fluorescence imaging (FLARE); settings: 35 kg female pig, 5 μmol intravenously, 4 hours; Channel 1 (700 nm) or Channel 2 (800 nm)
Procedure: as §1

[16] = system: salivary glands; test: Salivary gland NIR fluorescence imaging (FLARE); settings: 25 g male mouse, 25 nmol intravenously, 4 hours; Channel 1 (700 nm) or Channel 2 (800 nm)
Procedure: as §1

[17] = system: spleen; test: Spleen NIR fluorescence imaging (FLARE); settings: 25 g male mouse, 25 nmol intravenously, 4 hours; Channel 1 (700 nm) or Channel 2 (800 nm)
Procedure: as §1

[18] = system: adrenal; test: Adrenal NIR fluorescence imaging (FLARE); settings: 35 kg female pig, 5 μmol intravenously, 4 hours; Channel 1 (700 nm) or Channel 2 (800 nm)
Procedure: as §1

[19] = system: ovaries; test: Ovary NIR fluorescence imaging (FLARE); settings: 25 g female mouse, 25 nmol intravenously, 4 hours; Channel 1 (700 nm) or Channel 2 (800 nm)
Procedure: as §1

For `CN(C)CCCN1/C(=C/C=C/C=C/c2sc3cc(O)ccc3[n+]2CCCN(C)C)Sc2cc(O)ccc21` [SP66], the “NIR fluorescence contrast of the CSF” value [1] was “highlighted with high contrast”.
In the case of `CC1(C)C(/C=C/C(Br)=C/C=C2/N(CCC[N+](C)(C)C)c3ccc(Br)cc3C2(C)C)=[N+](CCC[N+](C)(C)C)c2ccc(Br)cc21` [A150], the “NIR fluorescence contrast of all lymph nodes” value [2] was “highlighted with high contrast”.
For `CN1/C(=C/C2=CC3=C/C(=C/c4sc5cc(O)ccc5[n+]4C)CCC3CC2)Sc2cc(O)ccc21` (stereo not shown) [ZK198], the “NIR fluorescence contrast of the bile duct” value [3] was “highlighted with high contrast”, the “NIR fluorescence contrast of the gallbladder” value [4] was “highlighted with high contrast” and the “NIR fluorescence contrast of the thoracic duct” value [5] was “highlighted with high contrast”.
`CC1(C)C(/C=C/C(=C/C=C2/N(CCC[N+](C)(C)C)c3ccc(S(=O)(=O)O)cc3C2(C)C)Oc2ccc(CCC(=O)O)cc2)=[N+](CCC[N+](C)(C)C)c2ccc(S(=O)(=O)O)cc21` [LN15] was tested, and the “NIR fluorescence contrast of the ureter” value [6] was “highlighted with high contrast”.
With `CN1/C(=C/C=C/C=C/c2sc3ccccc3[n+]2C)Sc2ccccc21` [SP28] the “NIR fluorescence contrast of the choroid plexus” value [7] was “highlighted with high contrast”.
With `CCN(CC)c1ccc(/C=C/C2=CC(/C=C/c3ccc(N(CC)CC)cc3)=[O+][B-](F)(F)O2)cc1` [PS31] the “NIR fluorescence contrast of the white adipose tissue” value [8] was “highlighted with high contrast”.
For `CC1(C)C(/C=C/C2=C(NCCc3ccc(N)cc3)C(=C/C=C3/N(CCC[N+](C)(C)C)c4ccc(S(=O)(=O)O)cc4C3(C)C)/CCC2)=[N+](CCC[N+](C)(C)C)c2ccc(S(=O)(=O)O)cc21` [LN65], the “NIR fluorescence contrast of the seminal vesicle” value [9] was “highlighted with high contrast”.
For `CN1/C(=C/C=C/C=C/C=C/c2sc3ccccc3[n+]2C)Sc2ccccc21` [ZK208], the “NIR fluorescence contrast of the choroid plexus” value [7] was “highlighted with high contrast”.
`CC1(C)C(/C=C/C(Br)=C/C=C2/N(CCC[N+](C)(C)C)c3ccc(S(=O)(=O)O)cc3C2(C)C)=[N+](CCC[N+](C)(C)C)c2ccc(S(=O)(=O)O)cc21` [A106] was tested, and the “NIR fluorescence contrast of the bile duct” value [3] was “highlighted with high contrast” and the “NIR fluorescence contrast of the thoracic duct” value [5] was “highlighted with high contrast”.
In the case of `CCCCN1/C(=C/C=C/C=C/c2sc3ccccc3[n+]2CCCC)Sc2ccccc21` [SP30], the “NIR fluorescence contrast of the brown fat” value [10] was “highlighted with high contrast”.
In the case of `CCCC[N+]1=C(/C=C/C=C/C=C/C=C2/N(C)c3ccccc3C2(C)C)C(C)(C)c2cc(OC)ccc21` [ZK189], the “NIR fluorescence contrast of the brain grey matter” value [11] was “highlighted with high contrast”.
In the case of `COc1ccc2c(c1)C(C)(C)C(/C=C/C=C/C=C/C=C1/N(C)c3ccc(OC)cc3C1(C)C)=[N+]2C` [AL22], the “NIR fluorescence contrast of the pancreas” value [12] was “highlighted with high contrast” and the “NIR fluorescence contrast of the pituitary gland” value [13] was “highlighted with high contrast”.
With `CCN1/C(=C/C=C/C=C/c2sc3cc(C)ccc3[n+]2CC)Sc2cc(C)ccc21` [SP60] the “NIR fluorescence contrast of the pituitary gland” value [13] was “highlighted with high contrast”.
With `CN1/C(=C/C=C/C=C/C2=[N+](C)c3ccc(F)cc3C2(C)C)C(C)(C)c2cc(F)ccc21` [T14] the “NIR fluorescence contrast of the pancreas” value [12] was “highlighted with high contrast”, the “NIR fluorescence contrast of the parathyroid” value [14] was “highlighted with high contrast” and the “NIR fluorescence contrast of the thyroid” value [15] was “highlighted with high contrast”.
In the case of `CC1(C)C(/C=C/C2=C(Sc3ccc(CC(=O)O)cc3)C(=C/C=C3/N(CCC[N+](C)(C)C)c4ccc(S(=O)(=O)O)cc4C3(C)C)/CCC2)=[N+](CCC[N+](C)(C)C)c2ccc(S(=O)(=O)O)cc21` [CNN2], the “NIR fluorescence contrast of the seminal vesicle” value [9] was “highlighted with high contrast”.
With `CN1\C(=C/C=C/C=C/C2=[N+](C)c3cc4c(cc3C2(C)C)OCO4)C(C)(C)c2cc3c(cc21)OCO3` [NRB1] the “NIR fluorescence contrast of the salivary glands” value [16] was “highlighted with high contrast”.
In the case of `CN1/C(=C/C=C/C=C/C=C/C2=[N+](C)c3ccc(F)cc3C2(C)C)C(C)(C)c2cc(F)ccc21` [QBN14], the “NIR fluorescence contrast of the parathyroid” value [14] was “highlighted with high contrast” and the “NIR fluorescence contrast of the thyroid” value [15] was “highlighted with high contrast”.
In the case of `CCN(CC)c1ccc2nc3ccc(=[N+](CC)CC)cc-3oc2c1` [WuA96], the “NIR fluorescence contrast of the brain grey matter” value [11] was “highlighted with high contrast”.
`CC1(C)C(/C=C/C=C/C=C/C=C2/N(CCCc3ccccc3)c3ccccc3C2(C)C)=[N+](CCCc2ccccc2)c2ccccc21` [AL29] was tested, and the “NIR fluorescence contrast of the spleen” value [17] was “highlighted with high contrast”.
With `CNCCCN1/C(=C/C=C/C=C/c2sc3ccccc3[n+]2CCCNC)Sc2ccccc21` [ZK211] the “NIR fluorescence contrast of the salivary glands” value [16] was “highlighted with high contrast”.
For `CC1(C)C(/C=C/C=C/C=C2/N(CCCc3ccccc3)c3ccc4ccccc4c3C2(C)C)=[N+](CCCc2ccccc2)c2ccc3ccccc3c21` [E16], the “NIR fluorescence contrast of the adrenal” value [18] was “highlighted with high contrast”.
With `CCCCN1/C(=C/C=C/C=C/C=C/C2=[N+](CCCC)c3ccccc3C2(C)C)C(C)(C)c2ccccc21` [AL27] the “NIR fluorescence contrast of the adrenal” value [18] was “highlighted with high contrast” and the “NIR fluorescence contrast of the ovaries” value [19] was “highlighted with high contrast”.
For `CC1(C)C(/C=C/C(Br)=C/C=C2/N(CCCc3ccccc3)c3ccc4ccccc4c3C2(C)C)=[N+](CCCc2ccccc2)c2ccc3ccccc3c21` [E24], the “NIR fluorescence contrast of the spleen” value [17] was “highlighted with high contrast”.
With `CC1(C)C(/C=C/C2=C(c3ccc(CCC(=O)O)cc3)C(=C/C=C3/N(CCC[N+](C)(C)C)c4ccc(S(=O)(=O)O)cc4C3(C)C)/CCC2)=[N+](CCC[N+](C)(C)C)c2ccc(S(=O)(=O)O)cc21` [A71] the “NIR fluorescence contrast of the ureter” value [6] was “highlighted with high contrast”.
`CCCCN1/C(=C/C=C/C=C/C=C/C2=[N+](CCCC)c3ccc(Cl)cc3C2(C)C)C(C)(C)c2cc(Cl)ccc21` [AH34] was tested, and the “NIR fluorescence contrast of the white adipose tissue” value [8] was “highlighted with high contrast”.
For `CN1/C(=C/C=C/C=C/C=C/C2=[N+](C)c3ccc(Br)cc3C2(C)C)C(C)(C)c2cc(Br)ccc21` [QBN1], the “NIR fluorescence contrast of the brown fat” value [10] was “highlighted with high contrast”.
